Data published in patent US11028427B2, “Systems and methods for proteomic activity analysis using DNA-encoded probes” (priority 2015, dated 2021).

How the values were obtained:
[1] = test system: caspase 3 in lysates from HeLa cells; assay: Caspase 3 activity in HeLa cell lysates with DNA-encoded probe, qPCR; format: cell-based; settings: HeLa cell lysates with vs without staurosporine treatment to induce apoptosis
[2] = target: PKA (Homo sapiens, UniProt P17612); assay: PKA peptide substrate kcat/Km comparison; format: biochemical
Text: This extracellular PKA (ecPKA) and other ectokinase activities have recently garnered interest as useful cancer markers. However, the low levels of activity present challenges for detection using conventional methods. Conventional techniques to detect ecPKA in patient samples have relied exclusively on radioactive assays; however, exposure to radioactivity is problematic for those performing the assays, as is the cumbersome amount of paperwork and red tape associated obtaining approval for the use of radioactive assays and the disposal of radioactive waste. However, the PKA level in the serum of healthy individuals has been estimated at about 3 pM, which is below other conventional assay detection limits and, thus, problematic. Using the techniques described herein, a DNA-peptide substrate probe was synthesized based on the highly specific protein inhibitor for PKA—protein kinase inhibitor (PKI)—with the sequence […]. This peptide has about a 100-fold greater kcat/Km than the RRFSL peptide for PKA and provided a significant increase (e.g., a 100-fold) in assay sensitivity. Accordingly, the method 300 for detecting proteomic activity using DNA-encoded probes could provide sensitivity for detection of PKA activity in the bloodstream of a subject to accurately identify upregulation, for example, of ecPKA, which can be indicative of cancer.

[3] = target: Biotinylated B. CAII immobilized on magnetic beads (Bos taurus, UniProt P00921); assay: Enrichment of ligands via solid-phase affinity pulldown, qPCR; format: binding, bovine; settings: for Enrichment (fold change relative to non-ligand (Bz) DNA construct): Solid Phase Affinity Pull down
Text: To prepare constructs for test selections, two CAII ligands and a non-ligand control (FIG. 17) were synthesized on a 5′-amine-modified, 40-mer oligonucleotide, which contained a PEG spacer between two 20-mer sequences as previously described. Using these oligos as primers in a PCR with unique 100-mer templates gave 100-mer dsDNA products tethered to the ligand-containing 20-mer ssDNA. DNA templates assigned to each ligand 1302 contained a unique, internal 20-mer sequence for use as a specific priming site to enable qPCR analysis of ligand enrichments. A mock library was then prepared by mixing ligand constructs GL-CBS and D-CBS at 0.1 nM each with an excess of control, non-ligand construct (Bz) (10 nM).
Using this mixture, test selections were conducted using the crosslinking approach with the sulfonyl fluoride oligo or using a traditional solid-phase selection with CAII immobilized on magnetic beads.
Biotinylated B. CAII (1.2× based on magnetic bead capacity) was immobilized onto pre-washed Nanolink Streptavidin Magnetic Beads by incubating in 0.1 M sodium phosphate, pH 8.0, 0.25 M NaCl, 0.02% (v/v) Tween-20, 1.0 mg/mL tRNA, 10 μM BSA for 2 h at RT. The magnetic beads were then separated and supernatant removed. The CAII-bound magnetic beads were then washed with the above buffer three times and a premix of ligand-dsDNA and non-ligand-dsDNA (0.1 nM and 10 nM, respectively) in the above buffer (in the appropriate volume to give the desired effective protein concentration) was added and incubated at RT for 1.5 h. The magnetic beads were then separated and DNA supernatant removed. The CAII-bound magnetic beads were then washed with the above buffer five times, maintaining the same effective protein concentration in each wash. After the final wash, the magnetic beads were suspended in […] and heated at 95° C. for 5 min. qPCR analysis of the premix and magnetic bead elution was completed by comparison of CT standard curves of identical dsDNA constructs.

[4] = target: T1, BSA (Bos taurus, UniProt P02769); assay: Crosslinking to BSA in reactions lacking the target protein, SDS-PAGE; format: binding, bovine; settings: reactive group phenyl azide (5); reactions that lacked the target protein
Experimental: (§1) This crosslinking likely reflects the propensity of BSA to bind to hydrophobic small molecules and potentially to sulfonamides specifically. Thus, this labeling may still be considered ligand-dependent.
Photocrosslinking was performed as described above, except the system was allowed to incubate with both the ligand-ssDNA and reactive group-ssDNA′ for 30 minutes at RT. Irradiation was completed by exposure to a 4W 356 nm UV light source at 4° C. for 1 hour, quenched by the addition 6×SDS-loading buffer, and directly analyzed by SDS-PAGE. Gels were imaged immediately for FAM fluorescence and then Coomassie stained.

[5] = target: T1, BSA; assay: Bio-layer interferometry analysis of binding to BSA; set-up: species or system bovine; settings: BSA at 10 μM; data not shown
Experimental: as §1
DNA conjugates were purified on a Varian Pro Star HPLC system and analytical analysis on an Agilent 1100 series HPLC system, both using Agilent Microsorb-MV 300-5 C18 250×4.6 mm reverse phase columns. Analytical separations were performed using 100 mM triethylammonium acetate (TEAA), pH 5.5 in water (A) or 100 mM triethylammonium acetate in 90% MeCN (B) with a linear gradient from 5-60% B over 22 minutes. Purifications were performed using the previous or 0.75% (v/v) 1,1,1,3,3,3-hexafluoropropan-2-ol, and 10 μM EDTA to pH 7.0 with triethylamine in water (A) or 90% MeOH (B) with a linear gradient from 5-50% B over 22 minutes. ESI-MS analysis was completed using an ABSciex 4500 QTrap from fractions collected from HFIP-based HPLC purifications. MALDI analysis was completed on an Applied Biosystems Voyager DE PRO instrument operated by the Purdue University Campus-Wide Mass Spectrometry Center after TEAA-based purification, ethanol precipitation, and ZipTip cleanup. On-DNA ligand dissociation constants were determined using a ForteBio Octet Red384. […] All gel images were recorded by a GE Healthcare Typhoon Trio+ with gel band quantifications determined using ImageJ software.

[6] = target: biotinylated B. CAII (Bos taurus, UniProt P00921); assay: Enrichment of ligands via crosslinking (SDS + stringent washes), qPCR; format: binding, bovine; settings: 1 μM CAII
Sequence of biotinylated B. CAII (P00921 whole entry): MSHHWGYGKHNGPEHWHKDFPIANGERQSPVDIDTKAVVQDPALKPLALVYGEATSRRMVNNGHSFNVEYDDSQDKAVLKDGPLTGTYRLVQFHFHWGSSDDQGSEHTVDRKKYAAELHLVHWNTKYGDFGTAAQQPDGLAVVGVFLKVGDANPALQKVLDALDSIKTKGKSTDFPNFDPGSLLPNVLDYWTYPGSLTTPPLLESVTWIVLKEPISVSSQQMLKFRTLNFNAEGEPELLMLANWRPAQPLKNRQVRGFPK

Sequence of Biotinylated B. CAII immobilized on magnetic beads (P00921 whole entry): as above
T1 sequence (P02769 25-607): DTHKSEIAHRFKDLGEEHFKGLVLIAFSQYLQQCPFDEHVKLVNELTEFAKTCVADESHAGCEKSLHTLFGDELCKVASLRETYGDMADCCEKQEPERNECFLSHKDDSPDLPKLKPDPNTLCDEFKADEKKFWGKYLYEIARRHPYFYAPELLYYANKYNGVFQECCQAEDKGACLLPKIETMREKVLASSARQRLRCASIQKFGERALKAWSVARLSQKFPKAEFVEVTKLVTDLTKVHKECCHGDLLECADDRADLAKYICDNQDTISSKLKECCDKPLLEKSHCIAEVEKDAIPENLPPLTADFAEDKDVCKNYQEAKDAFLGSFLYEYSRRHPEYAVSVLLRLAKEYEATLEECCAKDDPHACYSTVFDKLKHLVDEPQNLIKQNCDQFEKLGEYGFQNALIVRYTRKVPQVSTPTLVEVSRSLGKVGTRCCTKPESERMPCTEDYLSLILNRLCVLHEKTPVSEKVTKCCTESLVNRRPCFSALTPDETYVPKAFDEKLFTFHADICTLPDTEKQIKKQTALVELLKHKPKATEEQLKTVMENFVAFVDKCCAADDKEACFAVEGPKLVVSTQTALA

## CN[C@@H]1C[C@H]2O[C@@](C)([C@@H]1OC)n1c3ccccc3c3c4c(c5c6ccccc6n2c5c31)C(=O)NC4 [staurosporine]
[1]
  Increase in caspase activity: ~6 fold

## GRTGRRNSI
[2]
  kcat/Km relative to the RRFSL peptide: ~100 fold

## glycylleucine carboxybenzylsulfonamide [GL-CBS]
[3]; 1 μM CAII
  Overall enrichment in solid-phase selection compared to crosslinking selection (lower): 20 fold
  Recovery in solid-phase selection compared to crosslinking selection (greater): approximately 5 fold
  Enrichment (fold change relative to non-ligand (Bz) DNA construct): 720 fold
[3]; 17 μM CAII (estimated)
  Enrichment (fold change relative to non-ligand (Bz) DNA construct): 610 fold
[4]
  BSA crosslinking: significant levels of BSA crosslinking
[5]
  Binding to BSA: did not indicate binding
[6]; Without X-linking (3'-OH ssDNA)
  Enrichment (fold change relative to non-ligand (Bz) DNA construct): 22 fold
[6]; X-linking with 3 (sulfonyl fluoride)
  Enrichment (fold change in concentration of ligand-DNA construct relative to non-ligand (Bz) DNA construct): 17,000 fold
